Test results as given in patent publication US20220363649A1, “ORGANIC COMPOUNDS” (Rutgers, The State University of New Jersey, priority 2018, published 2022).

Columns and labels:
[1] = tested on: Sprague Dawley rats; assay: Spinal nerve ligation (SNL) Chung model in rats, mechanical allodynia; type: in vivo, rat; conditions: two doses, von Frey
Experimental: (§1) Groups of 6 male Sprague Dawley rats weighing 160-200 grams were used. Prior to surgery and post-operatively, the animals were housed socially under constant temperature, humidity, and a 12-hour light-dark cycle. Following acclimation to the animal colony for 7 days, the rats were tested for mechanical allodynia and thermal hyperalgesia for baseline (pre-dose) values on Day −1. On Day 0, the animals were anesthetized with pentobarbital (50 mg/kg, i.p.). The left paraspinal muscles were separated from the spinous processes (L4-S2) and the L6-S1 facet joint was nipped. The transverse process of L6 was removed to allow for identifying the location of the L5 and L6 spinal nerves. The left L5-L6 spinal nerves were isolated and tightly ligated with 6.0 silk sutures. The rats are allowed to recover for 13 days.
Rats were tested for mechanical allodynia and thermal hyperalgesia following acclimation on Day −1 for baseline (pre-dose) values. Following the recovery period, the rats were tested to verify the mechanical allodynia on Day 13. […]
Mechanical allodynia: The mechanical allodynia is assessed by the manual von Frey test (Chaplan up/down method using von Frey filaments on the plantar surface of the CFA injected paw). […] Mechanical threshold (50% g threshold) is assessed using the up- and down-method following the procedure described by Chaplan (Chaplan et al., 1994, J Neurosci Methods 53:55-63).

[2] = target: T1, human S1R (Homo sapiens, UniProt Q99720); assay: Human S1R radiolabeled binding assay, human jurkat cell membranes, [3H]-pentazocine; conditions: human membranes (Compounds 10-76)
T1 construct: experimentally determined in human jurkat cell membranes using 15.0 nM; endogenous in cells; host or cells: human Jurkat cell membranes
Experimental: The binding process was terminated by addition of cold buffer. Then, the mixture was filtered and washed with cold buffer. Radioactivity was identified using the TopCount NTX liquid scintillation counter (PerkinElmer, Waltham, Mass.).
(§2) Radiolabeled binding assays were conducted using two different species.

[3] = target: T2, human S2R (Homo sapiens, UniProt Q5BJF2); assay: Human S2R radiolabeled binding assay, Jurkat Clone E6-1 cell membranes, [3H] DTG; conditions: human membranes (Compounds 10-76)
T2 construct: performed using Jurkat cell line Clone E6-1 cells with 0.025 μM; endogenous in cells; host or cells: Jurkat Clone E6-1 cell membranes
Experimental: The radiolabeled binding assay of the human S1R and S2R were performed using human jurkat cell membranes according to the protocol previously reported (Ganapathy, et al., 1999, J. Pharmacol. Exp. Ther. 289:251-60).
DTG as radioligand. […] The cells were incubated in RPMI 1640 Medium with 10% FBS, 100 U/ml penicillin and […] streptomycin. After incubation, the cells were suspended in 5 mM potassium phosphate buffer (pH=7.6). The membrane protein concentration was controlled at 5 mg/mL. The collected membrane protein was incubated with ligands in potassium phosphate buffer for 1 hour at room temperature and terminated by adding ice-cold buffer. Then the mixture is filtered with 0.7 μm syringe filter and washed three times. The radioactivity is determined by liquid scintillation spectrometry.
Radiolabeled binding assays were conducted using two different species. Compounds 1-9 were assayed using guinea pig brain membranes for the binding assays. Compounds 10-76 were assayed using human brain membranes for the binding assays.

[4] = tested on: Sprague Dawley rats; assay: Spinal nerve ligation (SNL) Chung model in rats, thermal hyperalgesia; type: in vivo, rat; conditions: two doses, Hargreaves method
Experimental: as §1
Following a four (4) day wash out “period”, the rats were tested in the thermal hyperalgesia test and randomized to balance treatment groups. On Day 19, the rats were administered vehicle, Compound 68 at two doses, or gabapentin 50 mg/kg, IP. At 15 and 75 minutes post-dose the thermal hyperalgesia is tested again.
Thermal hyperalgesia: Thermal hyperalgesia is measured by the Hargreaves method. […] The time is measured automatically when the paw is withdrawn away from the thermal stimulus. […]

[5] = tested on: Sprague-Dawley rats; assay: Paclitaxel-induced cold hyperalgesia model in rats; type: in vivo, rat; conditions: i.p.
Experimental: (§3) Male Sprague-Dawley rats weighing 240+20 grams were employed. Paclitaxel (brand name TAXOL®, 2 mg/kg) is injected intraperitoneally (i.p.) on days 1, 3, 5 and 7 with a total cumulative dose of 8 mg/kg. During the course of the study, the animals were housed individually under constant temperature, humidity and a 12-hour light-dark cycle.
(§4) Test articles, vehicle and gabapentin were administered intraperitoneally on Days 14 or 21.
Cold hyperalgesia was assessed by the […] and measured prior to Paclitaxel injections (Day 0) and test article administration (Days 13 or 20) and at 0.5 hour after dosing of vehicle or test articles on Days 14 or 21. The animals were randomized to each groups based on pre-dose cold hyperalgesia values (Days 13 or 20). Test rat was placed in 2.5 cm depth of a 0-2° C. ice water bath in a Plexiglas arena 32×32 cm×27 cm high. Withdrawal latency of the left paw was recorded and averaged twice for cold hyperalgesia assessment. A 20 sec cut time was employed.

[6] = tested on: CD-1 mice; assay: Mouse tail flick test, potentiation of morphine analgesia; type: in vivo; conditions: mouse model of acute pain, n=8, i.p.; morphine SC
Experimental: Male young CD-1 mice (at the age of 7-8 weeks) were used for this study. Tail flick latency was determined using a lamp device (design derived from D'Amour & Smith, 1941, J. Pharmacol. Exp. Ther. 72(1):74-79). The behavioral endpoint was defined as a flick of the tail out of the path of the light. The intensity of the light was adjusted to provide a baseline response time of approximately 2-4 seconds. The light beam was focused approximately 4 cm from the tip of the tail. A cut off time of 20 seconds was used to prevent tissue damage. Mice received a single intra-peritoneal (IP) injection of either vehicle (saline) or test substance at appropriate doses followed immediately by a single sub-cutaneous (SC) administration of saline or Morphine at the appropriate dose for each group. Thirty minutes after the SC administration, the animals were gently restrained in a manner which allowed access to the tail and positioned beneath a light beam (D'Amour & Smith, 1941, J Pharmacol Exp Ther 72(1):74-79) with the tail aligned for measurement at approximately 4 cm from tail tip. The lamp device automatically timed each tail flick response once the tail was flicked away from the light beam by a sensor beneath the platform.

[7] = tested on: Sprague-Dawley rats; assay: Paclitaxel-induced mechanical allodynia model in rats; type: in vivo, rat; conditions: i.p., von Frey
Experimental: as §3, §4
Mechanical allodynia was assessed by the manual von Frey test and measured prior to Paclitaxel injections (Day 0) and test article administration (Days 13 or 20) and at 0.5 hour after dosing of vehicle or test articles on Days 14 or 21. The animals were randomized to each groups based on pre-dose mechanical allodynia values (Days 13 or 20). The animals were given 20 to 30 minutes to acclimatize prior to testing. The paw was touched with a series of 8 manual von Frey monofilaments with logarithmically incremental stiffness [3.61 (0.4 g), 3.84 (0.6 g), 4.08 (1.0 g), 4.31 (2.0 g), 4.56 (4.0 g), 4.74 (6.0 g), 4.93 (8.0 g), and 5.18 (15.0 g)]. […] Mechanical threshold (50% g threshold) was assessed using the up- and down-method following the procedure described by Chaplan, et al., 1994, J Neurosci Methods 53:55-63.

[8] = tested on: Sprague-Dawley rats; assay: Rat formalin test; type: in vivo; conditions: 20 and 40 mg/kg, i.p., hind paw licking time
Experimental: One day after the rotarod test, vehicle and test articles were administered intraperitoneally again to groups of 6 Sprague-Dawley male rats weighting 180±20 g, 30 minutes prior to sub-plantar injection of formalin (0.05 ml, 2% solution). The hind paw licking time was recorded during a 0-35 min period at 5-min intervals after formalin challenge as a measure of analgesic activity of the test compound.

[9] = tested on: Sprague-Dawley rats; assay: STZ-induced mechanical allodynia model in diabetic rats; type: in vivo, rat; conditions: i.p., von Frey
Experimental: (§5) Male Sprague-Dawley rats weighing 225-250 grams were employed. Streptozotocin (STZ, 50 mg/kg) freshly dissolved in 0.9% sterile saline was injected intraperitoneally on day 0. Three days later, diabetes was confirmed by existence of blood glucose >350 mg/dL as measured by glucometer. Animal health was monitored biweekly for 14 days, at which point mechanical allodynia and thermal hyperalgesia were measured and confirmed. During the course of the study, the animals were housed individually under constant temperature, humidity and a 12-hour light-dark cycle. The animals were tested prior to study inclusion for mechanical allodynia and thermal hyperalgesia.
(§6) The behavioral assessments include mechanical allodynia and thermal hyperalgesia. Test articles, vehicle and gabapentin were administered intraperitoneally on Days 14 or 21.
Mechanical allodynia was assessed by the manual von Frey test and measured prior to STZ injections (Day 0). The animals were then randomized to each groups based on pre-dose mechanical allodynia values (Day 13 and Day 20). The mechanical allodynia test was performed again at 0.5 and 1.5 hours after vehicle, test article or gabapentin administration on Day 14. […] Mechanical threshold (50% g threshold) was assessed using the up- and down-method following the procedure described by Chaplan, et al., 1994, J Neurosci Methods 53:55-63).

[10] = tested on: Sprague-Dawley rats; assay: Rat rotarod test (motor incoordination); type: in vivo; conditions: i.p., male Sprague-Dawley rats
Experimental: Groups of 6 pre-selected male (Sprague-Dawley) rats weighing 180±20 g were included to the study motor coordination. Rats were trained on a rod at a continuous accelerating speed from 4 to 30 rpm/min during a time period of 4 minutes for at least 3 times before the study. Rats were randomly assigned to different groups with similar baseline.
Vehicle and test articles were administered by intraperitoneal (i.p.) injection. The rats were placed on the accelerating rotarod at 30, 60, 90 and 120 min post dosing, and the time (seconds) the rat remained on the rotarod was recorded.

[11] = target: T3, S1R (Cavia porcellus, UniProt Q60492); assay: S1R radiolabeled binding assay, guinea pig whole brain, [3H]-pentazocine; conditions: guinea pig brain membranes (Compounds 1-9); read-out: S1R Ki
T3 construct: performed using Guinea pig whole brain according to the protocol previously reported; from tissue; host or cells: guinea pig whole brain membrane preparations
Experimental: Following 1 h incubation at 25° C., the binding assay was terminated by addition of cold buffer. The mixture was then filtered through Whatman GF/B filters and washed with cold buffer. Radioactivity was identified using the liquid scintillation counter.
Receptor binding data were analyzed by nonlinear regression of saturation and competition curves using the GraphPad Prism 7.0 software (GraphPad Software, La Jolla, Calif.).
as §2

[12] = tested on: Sprague-Dawley rats; assay: STZ-induced thermal hyperalgesia model in diabetic rats; type: in vivo, rat; conditions: i.p.
Experimental: as §5, §6
Thermal hyperalgesia: The animals were tested prior to study inclusion for thermal hyperalgesia on day 13 and Day 20. Thermal hyperalgesia was measured at 1 and 2 hours after dosing of vehicle or test article on Day 14 and Day 21 by using the IITC Model-336G (IITC INC. USA) apparatus. Each rat was placed within a plastic box atop a glass floor for 20 to 30 minutes. A light beam under the floor was aimed at the plantar surface of the left hind paw. The time was measured automatically when the paw was withdrawn away from the thermal stimulus. […]

T1 sequence (Q99720 whole entry): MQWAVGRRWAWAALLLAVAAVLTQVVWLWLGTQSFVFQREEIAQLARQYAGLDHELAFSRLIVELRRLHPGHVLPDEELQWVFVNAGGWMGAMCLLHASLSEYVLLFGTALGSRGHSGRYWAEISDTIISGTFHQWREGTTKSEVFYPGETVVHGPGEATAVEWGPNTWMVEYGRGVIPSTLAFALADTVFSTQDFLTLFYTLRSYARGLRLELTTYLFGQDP
T3 sequence (Q60492 whole entry): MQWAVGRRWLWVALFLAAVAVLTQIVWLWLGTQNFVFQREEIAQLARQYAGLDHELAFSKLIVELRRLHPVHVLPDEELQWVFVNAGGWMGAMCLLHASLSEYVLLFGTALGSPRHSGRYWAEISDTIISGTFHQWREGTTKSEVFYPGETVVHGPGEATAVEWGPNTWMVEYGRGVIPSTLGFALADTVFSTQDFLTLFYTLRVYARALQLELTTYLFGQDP
T2 sequence (Q5BJF2 whole entry): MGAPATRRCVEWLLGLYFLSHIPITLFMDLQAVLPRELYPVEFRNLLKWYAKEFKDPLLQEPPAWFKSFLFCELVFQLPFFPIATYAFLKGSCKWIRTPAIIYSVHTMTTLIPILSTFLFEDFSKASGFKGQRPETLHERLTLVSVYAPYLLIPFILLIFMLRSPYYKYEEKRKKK

| Ki [2] [nM] | Ki [3] [nM] | Structure (SMILES) | analgesic activity, mechanical allodynia in SNL Chung model [1] | analgesic activity, thermal hyperalgesia in SNL Chung model [4] | analgesic activity, Paclitaxel-induced cold hyperalgesia [5] | potentiation of morphine's analgesia, Tail Flick Test [6] | analgesic activity, Paclitaxel-induced mechanical allodynia [7] | analgesic activity in rat formalin test [8] | analgesic activity, STZ-induced mechanical allodynia [9] | motor incoordination effect in rat rotarod test ([10]; 20 mg/kg) | motor incoordination effect in rat rotarod test ([10]; 40 mg/kg, t=60 min) | Ki [11] [nM] | analgesic activity, STZ-induced thermal hyperalgesia [12] |
| --- | --- | --- | --- | --- | --- | --- | --- | --- | --- | --- | --- | --- | --- |
| 0.75 | 360 | CC(C)n1nc(CN2CCC3(CC3)C2)nc1-c1ccc(C(C)(C)C)cc1 [Compound 68, 5-((5-(4-(tert-butyl)phenyl)-1-isopropyl-1H-1,2,4-triazol-3-yl)methyl)-5-azaspiro[2.4]heptane] | exhibits analgesic activity | exhibits analgesic activity |  |  |  |  |  |  |  |  |  |
|  |  | Cn1nc(CN2CCCC2)nc1-c1ccc(C(C)(C)C)cc1 [Compound 8, 5-(4-(tert-butyl)phenyl)-1-methyl-3-(pyrrolidin-1-ylmethyl)-1H-1,2,4-triazole] |  |  | exhibits analgesic activity | potentiates morphine's analgesia | exhibits analgesic activity | dose-dependent analgesic activity | exhibits analgesic activity | No motor incoordination effect | very slight and temporary motor incoordination effect | 2.28 | exhibits analgesic activity |
